Measurements taken from ChEMBL document CHEMBL4118231, “Pyrroloquinoline scaffold-based 5-HT6R ligands: Synthesis, quantum chemical and molecular dynamic studies, and influence of nitrogen atom position in the scaffold on affinity” (Bioorg Med Chem, 2018).

Biological target: 5-hydroxytryptamine receptor 6 (Homo sapiens, UniProt P50406)
Experiment: Displacement of [3H]LSD from human 5-HT6R expressed in HEK293 cell membranes after 1 hr by microbeta counting method

5-hydroxytryptamine receptor 6, sequence (P50406 whole entry): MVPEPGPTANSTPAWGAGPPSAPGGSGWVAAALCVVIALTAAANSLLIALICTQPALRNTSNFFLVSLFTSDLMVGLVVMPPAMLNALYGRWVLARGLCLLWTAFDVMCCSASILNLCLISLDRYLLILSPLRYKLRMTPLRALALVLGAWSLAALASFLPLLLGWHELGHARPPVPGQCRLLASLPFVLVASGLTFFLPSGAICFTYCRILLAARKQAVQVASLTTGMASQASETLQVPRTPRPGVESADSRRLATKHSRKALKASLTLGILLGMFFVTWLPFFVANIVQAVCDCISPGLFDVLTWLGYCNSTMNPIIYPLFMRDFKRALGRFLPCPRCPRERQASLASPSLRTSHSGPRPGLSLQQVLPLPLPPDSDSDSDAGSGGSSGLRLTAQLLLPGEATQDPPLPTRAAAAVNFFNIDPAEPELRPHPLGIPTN

| Structure (SMILES) | Ki |
| --- | --- |
| O=S(=O)(c1cccc(Cl)c1)n1cc(C2=CCNCC2)c2ccc3ncccc3c21 | 427 nM |
| Clc1cccc(Cn2cc(C3=CCNCC3)c3ccc4cccnc4c32)c1 | 269 nM |
| O=S(=O)(c1cccc(Br)c1)n1cc(C2=CCNCC2)c2ccc3cccnc3c21 | 61 nM |
| O=S(=O)(c1cccc(Cl)c1)n1cc(C2=CCNCC2)c2ccc3cccnc3c21 | 49 nM |
| O=S(=O)(c1cccc(F)c1)n1cc(C2=CCNCC2)c2ccc3cccnc3c21 | 45 nM |
| O=S(=O)(c1ccccc1)n1cc(C2=CCNCC2)c2ccc3cccnc3c21 | 131 nM |
| O=S(=O)(c1cccc(F)c1)n1cc(C2=CCNCC2)c2ccc3ncccc3c21 | 365 nM |
| O=S(=O)(c1ccccc1)n1cc(C2=CCNCC2)c2ccc3ncccc3c21 | 711 nM |
| O=S(=O)(c1cccc(Br)c1)n1cc(C2=CCNCC2)c2ccc3ncccc3c21 | 137 nM |
